Measurements taken from ChEMBL document CHEMBL4507328, “Data for DCP probe BAY-390” (2021).
Blank lines part the entries; values can stand above or below the compound they belong to. Activity calls are given as the source filed them. The calls are words filed in the database; no cut-off is given here.

Columns and labels:
[1] = target: 5-hydroxytryptamine receptor 1D (Homo sapiens) (UniProt P28221); conditions: Compound concentration 10.0 uM
[2] = target: 5-hydroxytryptamine receptor 1E (Homo sapiens) (UniProt P28566); conditions: Compound concentration 10.0 uM
5-hydroxytryptamine receptor 1E (Homo sapiens), sequence (P28566 whole entry): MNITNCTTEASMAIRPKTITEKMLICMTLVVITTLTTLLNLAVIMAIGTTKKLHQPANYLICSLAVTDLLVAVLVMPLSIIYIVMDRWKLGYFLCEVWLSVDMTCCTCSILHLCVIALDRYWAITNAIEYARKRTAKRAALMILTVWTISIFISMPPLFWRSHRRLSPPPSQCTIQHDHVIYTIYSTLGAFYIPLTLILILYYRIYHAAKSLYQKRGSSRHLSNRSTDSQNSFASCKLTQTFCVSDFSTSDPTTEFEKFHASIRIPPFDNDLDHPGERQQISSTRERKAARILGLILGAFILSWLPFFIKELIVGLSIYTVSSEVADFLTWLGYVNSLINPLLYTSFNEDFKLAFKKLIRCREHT

Histamine H2 receptor = Histamine H2 receptor (Homo sapiens, UniProt P25021); experiment: GPCRScan assay: inhibition of H2; parameters: radioligand conc. used [nm] 0.02 – 0.05, parental cells Stable HEK
Histamine H2 receptor, sequence (P25021 whole entry): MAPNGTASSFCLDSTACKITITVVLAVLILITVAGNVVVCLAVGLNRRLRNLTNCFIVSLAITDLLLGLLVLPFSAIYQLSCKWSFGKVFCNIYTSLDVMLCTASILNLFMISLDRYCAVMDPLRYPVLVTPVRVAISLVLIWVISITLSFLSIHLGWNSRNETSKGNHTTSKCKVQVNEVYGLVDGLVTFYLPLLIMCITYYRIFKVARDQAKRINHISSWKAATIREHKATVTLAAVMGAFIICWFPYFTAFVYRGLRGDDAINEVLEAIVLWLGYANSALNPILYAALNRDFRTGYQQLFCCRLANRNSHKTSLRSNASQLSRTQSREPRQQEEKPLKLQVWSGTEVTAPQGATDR

[3] = target: Alpha-2A adrenergic receptor (Homo sapiens) (UniProt P08913); conditions: Compound concentration 10.0 uM
[4] = target: T1, Sodium-dependent dopamine transporter (Homo sapiens, UniProt Q01959); conditions: Compound concentration 10.0 uM
T1 sequence (Q01959 whole entry): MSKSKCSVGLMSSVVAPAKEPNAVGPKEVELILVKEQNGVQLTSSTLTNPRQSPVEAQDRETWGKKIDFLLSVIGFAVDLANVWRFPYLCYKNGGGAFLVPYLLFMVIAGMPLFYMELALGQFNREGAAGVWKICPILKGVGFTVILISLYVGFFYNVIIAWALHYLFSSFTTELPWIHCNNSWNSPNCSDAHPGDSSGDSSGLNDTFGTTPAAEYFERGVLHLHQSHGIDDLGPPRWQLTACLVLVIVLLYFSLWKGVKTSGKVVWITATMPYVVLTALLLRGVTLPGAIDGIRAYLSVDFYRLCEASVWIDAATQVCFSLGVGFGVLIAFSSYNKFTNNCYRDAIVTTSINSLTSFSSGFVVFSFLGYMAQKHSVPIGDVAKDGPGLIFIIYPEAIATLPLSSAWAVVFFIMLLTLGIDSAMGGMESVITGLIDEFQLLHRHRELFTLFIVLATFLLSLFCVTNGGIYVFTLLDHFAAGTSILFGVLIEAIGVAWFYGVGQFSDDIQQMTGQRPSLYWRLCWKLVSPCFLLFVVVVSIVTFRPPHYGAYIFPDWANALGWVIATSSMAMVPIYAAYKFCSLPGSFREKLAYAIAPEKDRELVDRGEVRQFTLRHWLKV

Rattus norvegicus = species on record: Rattus norvegicus; conditions: Compound concentration 10.0 uM
[5] = target: Potassium channel subfamily K member 9 (Homo sapiens, UniProt Q9NPC2); experiment: Selectivity screen (KCNK9)
Potassium channel subfamily K member 9, sequence (Q9NPC2 whole entry): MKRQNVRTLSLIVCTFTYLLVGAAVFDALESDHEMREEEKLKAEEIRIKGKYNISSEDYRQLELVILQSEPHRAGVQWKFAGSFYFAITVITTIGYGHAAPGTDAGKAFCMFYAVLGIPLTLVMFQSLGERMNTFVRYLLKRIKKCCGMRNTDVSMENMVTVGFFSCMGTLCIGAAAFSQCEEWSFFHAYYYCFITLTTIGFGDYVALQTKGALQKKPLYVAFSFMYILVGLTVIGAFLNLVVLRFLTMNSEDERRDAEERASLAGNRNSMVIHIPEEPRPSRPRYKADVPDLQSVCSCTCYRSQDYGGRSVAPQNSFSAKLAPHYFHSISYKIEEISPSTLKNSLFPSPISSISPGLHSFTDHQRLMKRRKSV

[6] = target: Alpha-2B adrenergic receptor (Homo sapiens) (UniProt P18089); conditions: Compound concentration 10.0 uM
[7] = target: Transient receptor potential cation channel subfamily A member 1 (Mus musculus, UniProt Q8BLA8); experiment: FLIPR Ca2+ assay (mouse TRPA1)
Progesterone receptor = Progesterone receptor (Homo sapiens, UniProt P06401); experiment: Inhibition of Progesterone PR-B at compound concentration of 10.0 uM in the Eurofins-Panlabs radioligand binding assay (Eurofins_assay_299005); parameters: ligand concentration 0.5 nM, non-specific ligand with concentration 1 uM R5020, incubation time 20 h, incubation temperature 4 C
Progesterone receptor, sequence (P06401 whole entry): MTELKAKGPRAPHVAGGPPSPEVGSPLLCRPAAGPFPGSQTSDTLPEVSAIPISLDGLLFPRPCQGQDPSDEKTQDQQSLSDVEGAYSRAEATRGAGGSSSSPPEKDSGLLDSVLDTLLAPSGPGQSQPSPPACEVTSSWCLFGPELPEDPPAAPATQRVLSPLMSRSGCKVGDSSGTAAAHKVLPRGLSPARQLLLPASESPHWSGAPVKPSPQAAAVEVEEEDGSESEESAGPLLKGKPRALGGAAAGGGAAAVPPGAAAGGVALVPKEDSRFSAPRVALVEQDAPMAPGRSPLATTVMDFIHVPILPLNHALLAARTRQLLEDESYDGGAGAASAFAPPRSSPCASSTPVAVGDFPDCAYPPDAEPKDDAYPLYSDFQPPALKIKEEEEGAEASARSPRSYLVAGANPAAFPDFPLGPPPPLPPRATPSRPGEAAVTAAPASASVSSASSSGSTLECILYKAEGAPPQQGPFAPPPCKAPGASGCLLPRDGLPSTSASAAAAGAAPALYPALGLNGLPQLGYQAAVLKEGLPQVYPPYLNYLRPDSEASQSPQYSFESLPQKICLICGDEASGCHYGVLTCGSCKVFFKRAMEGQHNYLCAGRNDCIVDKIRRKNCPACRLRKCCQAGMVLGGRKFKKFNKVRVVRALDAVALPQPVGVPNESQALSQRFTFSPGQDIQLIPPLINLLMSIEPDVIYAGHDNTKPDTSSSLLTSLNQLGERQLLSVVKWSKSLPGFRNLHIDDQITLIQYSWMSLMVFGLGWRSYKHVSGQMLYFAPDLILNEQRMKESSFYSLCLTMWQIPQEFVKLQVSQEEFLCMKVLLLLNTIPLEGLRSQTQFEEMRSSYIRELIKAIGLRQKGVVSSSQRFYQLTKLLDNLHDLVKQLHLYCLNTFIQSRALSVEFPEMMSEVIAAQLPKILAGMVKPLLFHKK

[8] = target: Androgen receptor (Homo sapiens) (UniProt P10275); conditions: Compound concentration 10.0 uM
[9] = target: 5-hydroxytryptamine receptor 2A (Homo sapiens, UniProt P28223); conditions: Compound concentration 10.0 uM
5-hydroxytryptamine receptor 2A, sequence (P28223 whole entry): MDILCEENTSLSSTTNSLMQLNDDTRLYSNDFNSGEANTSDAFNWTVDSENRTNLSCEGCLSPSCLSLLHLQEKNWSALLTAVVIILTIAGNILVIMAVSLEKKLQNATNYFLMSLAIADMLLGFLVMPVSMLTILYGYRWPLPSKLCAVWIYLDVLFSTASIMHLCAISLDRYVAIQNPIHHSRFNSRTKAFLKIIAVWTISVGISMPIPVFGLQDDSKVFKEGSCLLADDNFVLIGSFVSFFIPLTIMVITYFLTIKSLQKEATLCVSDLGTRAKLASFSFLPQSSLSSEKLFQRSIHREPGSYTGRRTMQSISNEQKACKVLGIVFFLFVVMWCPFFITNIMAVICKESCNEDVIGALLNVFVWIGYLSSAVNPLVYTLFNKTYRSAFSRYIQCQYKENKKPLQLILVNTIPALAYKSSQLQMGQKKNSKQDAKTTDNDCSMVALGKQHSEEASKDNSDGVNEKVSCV

[10] = target: Vasopressin V1a receptor (Homo sapiens) (UniProt P37288); conditions: Compound concentration 10.0 uM
[11] = target: Glutamate NMDA receptor (Rattus norvegicus) (UniProt P35439+Q00959+Q00960+Q00961+Q62645+Q8VHN2+Q9R1M7); conditions: Compound concentration 10.0 uM
[12] = target: Endothelin-1 receptor (Homo sapiens) (UniProt P25101); conditions: Compound concentration 10.0 uM
Endothelin-1 receptor (Homo sapiens), sequence (P25101 whole entry): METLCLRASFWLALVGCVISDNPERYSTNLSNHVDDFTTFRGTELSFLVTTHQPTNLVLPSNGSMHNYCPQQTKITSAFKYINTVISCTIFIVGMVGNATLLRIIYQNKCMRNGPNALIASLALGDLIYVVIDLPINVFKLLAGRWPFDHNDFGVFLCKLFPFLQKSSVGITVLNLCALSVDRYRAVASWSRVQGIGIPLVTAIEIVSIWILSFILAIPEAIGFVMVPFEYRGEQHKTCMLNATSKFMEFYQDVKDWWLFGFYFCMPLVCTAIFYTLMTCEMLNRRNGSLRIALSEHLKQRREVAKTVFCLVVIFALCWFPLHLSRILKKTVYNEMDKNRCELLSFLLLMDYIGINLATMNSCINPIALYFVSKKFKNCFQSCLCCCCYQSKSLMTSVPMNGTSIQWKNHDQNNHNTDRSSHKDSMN

[13] = target: D(1B) dopamine receptor (Homo sapiens) (UniProt P21918); conditions: Compound concentration 10.0 uM
[14] = target: Transient receptor potential cation channel subfamily A member 1 (Homo sapiens, UniProt O75762); experiment: Ephys (human TRPA1)
[15] = target: D(1A) dopamine receptor (Homo sapiens) (UniProt P21728); conditions: Compound concentration 10.0 uM
[16] = target: T1, Sodium-dependent dopamine transporter; experiment: GPCRScan assay: inhibition of DAT; parameters: radioligand conc. used [nm] 3.6 – 16.0, parental cells stable HEK
[17] = target: 5-hydroxytryptamine receptor 5A (Homo sapiens) (UniProt P47898); conditions: Compound concentration 10.0 uM
5-hydroxytryptamine receptor 5A (Homo sapiens), sequence (P47898 whole entry): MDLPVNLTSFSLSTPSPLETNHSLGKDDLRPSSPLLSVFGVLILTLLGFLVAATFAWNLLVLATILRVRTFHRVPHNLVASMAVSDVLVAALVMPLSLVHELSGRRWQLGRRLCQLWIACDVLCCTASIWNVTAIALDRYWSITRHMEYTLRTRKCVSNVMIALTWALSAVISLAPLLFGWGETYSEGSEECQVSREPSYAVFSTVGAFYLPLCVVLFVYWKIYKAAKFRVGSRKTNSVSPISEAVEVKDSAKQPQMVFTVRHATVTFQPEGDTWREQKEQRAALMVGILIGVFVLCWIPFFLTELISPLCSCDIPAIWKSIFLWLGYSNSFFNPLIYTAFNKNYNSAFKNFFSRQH

[18] = target: Histamine H4 receptor (Homo sapiens) (UniProt Q9H3N8); conditions: Compound concentration 10.0 uM
[19] = target: Mu-type opioid receptor (Homo sapiens) (UniProt P35372); conditions: Compound concentration 10.0 uM
[20] = target: T2, Alpha-2C adrenergic receptor (Homo sapiens) (UniProt P18825); conditions: Compound concentration 10.0 uM
T2 sequence (whole entry): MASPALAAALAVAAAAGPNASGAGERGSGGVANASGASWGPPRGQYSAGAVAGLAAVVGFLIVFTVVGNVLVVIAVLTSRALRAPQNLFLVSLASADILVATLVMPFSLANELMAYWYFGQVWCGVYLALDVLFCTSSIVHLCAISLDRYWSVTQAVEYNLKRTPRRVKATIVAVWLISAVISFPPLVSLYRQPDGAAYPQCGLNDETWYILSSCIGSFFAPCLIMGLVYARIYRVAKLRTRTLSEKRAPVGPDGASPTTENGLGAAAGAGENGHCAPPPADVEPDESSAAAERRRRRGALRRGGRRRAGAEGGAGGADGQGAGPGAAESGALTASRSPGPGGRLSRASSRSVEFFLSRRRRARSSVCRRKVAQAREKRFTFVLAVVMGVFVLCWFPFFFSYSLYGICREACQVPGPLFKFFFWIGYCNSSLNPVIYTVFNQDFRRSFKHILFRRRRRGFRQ

[21] = target: Cannabinoid receptor 2 (Homo sapiens) (UniProt P34972); conditions: Compound concentration 10.0 uM
[22] = target: D(2) dopamine receptor (Homo sapiens) (UniProt P14416); conditions: Compound concentration 10.0 uM
D(2) dopamine receptor (Homo sapiens), sequence (P14416 whole entry): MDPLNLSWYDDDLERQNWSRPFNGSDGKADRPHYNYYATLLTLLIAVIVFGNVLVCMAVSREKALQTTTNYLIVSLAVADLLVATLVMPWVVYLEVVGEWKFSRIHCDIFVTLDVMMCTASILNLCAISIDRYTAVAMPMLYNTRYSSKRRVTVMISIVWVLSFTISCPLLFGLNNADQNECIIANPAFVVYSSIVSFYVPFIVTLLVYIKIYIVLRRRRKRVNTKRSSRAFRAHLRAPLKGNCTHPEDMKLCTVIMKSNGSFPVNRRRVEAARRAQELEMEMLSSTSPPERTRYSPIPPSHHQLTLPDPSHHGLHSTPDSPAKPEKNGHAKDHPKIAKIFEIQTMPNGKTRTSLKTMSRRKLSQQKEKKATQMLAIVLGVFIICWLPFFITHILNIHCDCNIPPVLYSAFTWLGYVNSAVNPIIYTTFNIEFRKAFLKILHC

[23] = target: T3, 5-hydroxytryptamine receptor 2C (Homo sapiens) (UniProt P28335); conditions: Compound concentration 10.0 uM
T3 sequence (whole entry): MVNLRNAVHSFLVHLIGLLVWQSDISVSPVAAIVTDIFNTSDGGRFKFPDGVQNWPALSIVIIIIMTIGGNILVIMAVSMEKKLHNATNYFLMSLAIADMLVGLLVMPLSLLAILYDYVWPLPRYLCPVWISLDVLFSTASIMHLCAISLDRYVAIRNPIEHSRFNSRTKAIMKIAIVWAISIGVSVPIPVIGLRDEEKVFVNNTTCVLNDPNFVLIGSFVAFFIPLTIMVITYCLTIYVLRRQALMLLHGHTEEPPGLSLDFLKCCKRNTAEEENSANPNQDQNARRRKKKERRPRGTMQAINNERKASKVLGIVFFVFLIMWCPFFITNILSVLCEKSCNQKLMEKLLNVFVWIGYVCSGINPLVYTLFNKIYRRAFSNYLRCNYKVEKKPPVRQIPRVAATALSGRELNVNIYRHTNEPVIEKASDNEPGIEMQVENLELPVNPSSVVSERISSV

[24] = target: Adenosine receptor A2a (Homo sapiens) (UniProt P29274); conditions: Compound concentration 10.0 uM

5-hydroxytryptamine receptor 1D (Homo sapiens), sequence (P28221 whole entry): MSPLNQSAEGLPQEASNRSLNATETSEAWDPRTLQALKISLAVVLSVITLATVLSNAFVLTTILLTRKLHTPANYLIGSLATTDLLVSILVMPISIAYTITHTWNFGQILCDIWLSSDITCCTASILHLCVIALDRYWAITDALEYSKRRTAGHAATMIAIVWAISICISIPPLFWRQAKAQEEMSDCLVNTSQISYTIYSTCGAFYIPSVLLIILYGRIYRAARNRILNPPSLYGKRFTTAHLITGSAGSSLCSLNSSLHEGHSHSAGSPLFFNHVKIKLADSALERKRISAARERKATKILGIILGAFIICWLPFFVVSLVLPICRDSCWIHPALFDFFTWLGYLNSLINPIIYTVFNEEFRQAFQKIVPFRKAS

- inhibition [1]: 2.77%
- inhibition [2]: -4.13%
- Ki (Histamine H2 receptor): 9.78 µM
Structure (SMILES): COc1cc(N[C@@H]2CCCC[C@]2(O)C(F)(F)F)ccc1F [BAY-9897]

Structure (SMILES): O[C@]1(C(F)(F)F)CCCC[C@H]1Nc1ccc(F)cc1 [BAY-390]
- inhibition [3]: 7%
- inhibition [4]: 84%
- inhibition (Rattus norvegicus): -5%
- IC50 [5]: > 25 µM (not active)
- inhibition [6]: 2%
- IC50 [7]: 0.073 µM (active)
- IC50 (Progesterone receptor): 5 µM
- Ki (Progesterone receptor): 4 µM
- inhibition [8]: 47%
- inhibition [9]: -2%
- inhibition [10]: -7%
- inhibition [11]: 9%
- inhibition [12]: 7%
- inhibition [13]: 30.2%
- IC50 [14]: 0.082 µM (active)
- inhibition [15]: 15.6%
- Ki ([16]; read-out: Ki): 1.38 µM
- Ki ([16]; read-out: pKi (converted)): 1.35 µM
- inhibition [17]: -7.74%
- inhibition [18]: 15.6%
- inhibition [19]: 5%
- inhibition [20]: -1%
- inhibition [21]: 21%
- inhibition [22]: 12%
- inhibition [23]: 3%
- inhibition [24]: 3%
